Results from patent US20230285442A1, “USE OF OLIGOCHITOSANS AND DERIVATIVES THEREOF FOR NEUTRALIZING VIRAL AGENTS” (priority 2020, published 2023).

Columns and labels:
Solubility in water = assay type: physicochemical
HIV-1 89.6 = assay: Anti-HIV activity in PBMC culture ex vivo, p24 in culture supernatants; assay type: cell-based, human; conditions: PBMCs infected with HIV-1 89.6, day 3 of the culture
Description: PBMCs were treated with NCD1 or not treated, followed by infection with HIV-1 89.6. Samples were pelleted on days 0, 2, and 3. Culture supernatants were assayed for p24 concentration. The assay was done in triplicate.
HIV p24 Assay: HIV-1 p24 ELISA was performed using HIV-1 p24 antigen capture assay according to manufacturer's protocol (Advanced BioSciences Laboratory).
To confirm the activity of the newly synthesized compounds in HIV infected human cells, peripheral blood mononuclear cells (PBMCs) from healthy humans were cultured and parallel assays with PBMCs treated with NCD1 and samples with no treatment were run, followed by infection with HIV-1 89.6. Samples were pelleted on days 0, 2, and 3. Culture supernatants were assayed for p24 concentration.

HIV-89.6 = assay: HIV binding in culture supernatant, total HIV RNA in supernatant; conditions: non-sulfated, unmodified oligochitosan
Description: The desired compound in PBS or DMSO was incubated with virus for 30 min and then centrifuged. Total RNA isolated from supernatant was quantified. The assay was done in triplicate.
Medium/blood samples. To ensure uniformity and reproducibility, standards with known viral copy numbers of HIV89.6 (NIH NIAID repository) were prepared. A known amount of virus was spiked into cell culture medium in ten-fold serial dilutions. HIV-1 RNA was extracted using the High Pure viral RNA kit (Ambion). Complementary DNA (cDNA) was synthesized with the SuperScript III cDNA Synthesis Kit (Invitrogen) and amplified and quantified using primers specific for HIV-1 LTR. Real-time PCR amplification was performed in a CFX96™ Real-Time system (Bio-Rad, Hercules, CA). […] HIV-1 specific amplicons were detected using SYBR Green (Bio-Rad). The number of HIV-1 RNA copies in each test template was measured by its threshold cycle (Ct) as determined from the curve of serially diluted standards using data analysis software (Bio-Rad CFX Manager). […] Quantification of HIV-1 RNA in each test sample was back calculated and viral load was expressed as copies/ml. […]
Quantitative real time PCR was performed using BioRad CFX 96 with the known amounts of HIV-1 RNA as standards. The starting quantity of HIV-1 RNA in the samples treated with different compounds was determined using the standard curve and is plotted on the graph. […]

Substance	solubility in water (Solubility in water)	p24 levels in culture supernatants, treated vs non-treated cells (HIV-1 89.6)	binding to HIV (HIV-89.6)
Oligochitosan 10 kDa [NCD1]	soluble	significantly reduced	surprising and unexpected binding to HIV
Starch azure [NCD9]	insoluble in water		
